From ChEMBL document CHEMBL5465560, “Selectivity Literature for EUbOPEN Chemogenomic Library” (2024)
Each block holds one compound with its values, some of them ahead of it.

Assays:
[1] = molecular target: T1, Serine/threonine-protein kinase ULK3 (Homo sapiens) (UniProt Q6PHR2); experiment: Selectivity interaction (KinomeScan (DiscoverX)) EUB0001079a ULK3; conditions: at 1 µM
T1 sequence (whole entry): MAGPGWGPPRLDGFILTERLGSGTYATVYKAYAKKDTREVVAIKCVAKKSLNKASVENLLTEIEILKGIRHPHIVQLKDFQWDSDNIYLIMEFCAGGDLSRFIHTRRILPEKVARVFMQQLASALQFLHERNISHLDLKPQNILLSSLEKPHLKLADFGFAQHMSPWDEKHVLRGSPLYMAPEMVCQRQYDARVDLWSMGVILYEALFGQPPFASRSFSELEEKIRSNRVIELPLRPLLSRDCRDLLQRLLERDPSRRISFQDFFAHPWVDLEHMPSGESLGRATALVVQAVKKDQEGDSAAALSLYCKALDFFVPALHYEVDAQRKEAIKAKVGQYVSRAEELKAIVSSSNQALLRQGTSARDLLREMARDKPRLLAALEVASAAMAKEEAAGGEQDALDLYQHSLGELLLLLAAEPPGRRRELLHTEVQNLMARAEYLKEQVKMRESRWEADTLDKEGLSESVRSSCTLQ

[2] = molecular target: Protein kinase C eta type (Homo sapiens) (UniProt P24723); experiment: Selectivity interaction (KinomeScan (DiscoverX)) EUB0001079a PRKCH; conditions: at 1 µM
[3] = molecular target: T2, Myosin-IIIb (Homo sapiens) (UniProt Q8WXR4); experiment: Selectivity interaction (KinomeScan (DiscoverX)) EUB0000607a MYO3B; conditions: at 10 µM
T2 sequence (whole entry): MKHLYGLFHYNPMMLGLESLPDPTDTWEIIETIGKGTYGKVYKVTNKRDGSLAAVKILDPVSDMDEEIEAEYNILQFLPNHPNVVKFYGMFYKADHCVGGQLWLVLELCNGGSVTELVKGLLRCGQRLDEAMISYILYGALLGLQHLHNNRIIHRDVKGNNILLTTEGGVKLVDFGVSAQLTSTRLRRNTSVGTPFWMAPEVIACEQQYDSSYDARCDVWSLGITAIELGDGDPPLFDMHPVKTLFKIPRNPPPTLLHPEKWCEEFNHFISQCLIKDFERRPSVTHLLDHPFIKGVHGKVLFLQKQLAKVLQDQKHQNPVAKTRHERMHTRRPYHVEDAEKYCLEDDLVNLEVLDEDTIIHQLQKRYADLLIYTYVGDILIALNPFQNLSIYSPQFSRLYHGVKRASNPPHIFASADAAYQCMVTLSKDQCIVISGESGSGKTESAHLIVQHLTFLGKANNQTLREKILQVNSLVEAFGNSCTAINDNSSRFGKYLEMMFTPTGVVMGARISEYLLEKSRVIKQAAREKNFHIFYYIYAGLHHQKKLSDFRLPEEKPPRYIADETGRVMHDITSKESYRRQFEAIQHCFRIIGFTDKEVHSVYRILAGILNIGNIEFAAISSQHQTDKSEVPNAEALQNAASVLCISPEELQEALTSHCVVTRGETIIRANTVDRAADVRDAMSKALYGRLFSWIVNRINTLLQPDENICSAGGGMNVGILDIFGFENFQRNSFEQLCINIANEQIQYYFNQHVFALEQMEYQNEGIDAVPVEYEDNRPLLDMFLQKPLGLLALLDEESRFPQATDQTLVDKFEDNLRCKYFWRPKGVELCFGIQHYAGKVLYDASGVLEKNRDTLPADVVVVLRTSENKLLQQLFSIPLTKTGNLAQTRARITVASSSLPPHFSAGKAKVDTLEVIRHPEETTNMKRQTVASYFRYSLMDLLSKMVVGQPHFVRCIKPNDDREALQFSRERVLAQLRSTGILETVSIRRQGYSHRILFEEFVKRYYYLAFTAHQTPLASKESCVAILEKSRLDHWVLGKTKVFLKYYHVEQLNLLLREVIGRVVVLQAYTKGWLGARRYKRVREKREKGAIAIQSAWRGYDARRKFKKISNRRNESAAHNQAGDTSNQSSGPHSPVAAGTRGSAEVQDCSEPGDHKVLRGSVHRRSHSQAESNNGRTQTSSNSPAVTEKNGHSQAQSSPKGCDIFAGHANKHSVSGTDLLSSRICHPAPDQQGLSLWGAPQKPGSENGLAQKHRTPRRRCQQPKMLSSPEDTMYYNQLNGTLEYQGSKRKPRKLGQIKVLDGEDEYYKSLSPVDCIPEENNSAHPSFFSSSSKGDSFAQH

[4] = molecular target: T3, Dual specificity mitogen-activated protein kinase kinase 4 (Homo sapiens) (UniProt P45985); experiment: Selectivity interaction (KinomeScan (DiscoverX)) EUB0001619a MAP2K4; conditions: at 1 µM
T3 sequence (whole entry): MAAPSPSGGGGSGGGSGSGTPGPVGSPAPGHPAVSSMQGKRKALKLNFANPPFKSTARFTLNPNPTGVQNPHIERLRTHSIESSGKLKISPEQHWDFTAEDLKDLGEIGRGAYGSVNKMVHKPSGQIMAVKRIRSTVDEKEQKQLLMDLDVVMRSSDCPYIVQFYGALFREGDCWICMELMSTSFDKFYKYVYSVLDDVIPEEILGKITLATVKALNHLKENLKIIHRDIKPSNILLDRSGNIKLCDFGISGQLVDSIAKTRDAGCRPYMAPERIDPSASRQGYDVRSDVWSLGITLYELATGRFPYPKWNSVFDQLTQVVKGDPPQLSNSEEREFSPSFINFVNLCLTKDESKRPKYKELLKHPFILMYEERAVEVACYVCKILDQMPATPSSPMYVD

[5] = molecular target: Cyclin-dependent kinase 1 (Homo sapiens) (UniProt P06493); experiment: Selectivity interaction (ActivX KiNativ screen (kinase selectivity in THP-1 cell lysates)) EUB0000639a CDK1; type: subcellular; conditions: lysate
[6] = molecular target: Protein arginine N-methyltransferase 5 (Homo sapiens, UniProt O14744); experiment: Selectivity interaction (Transferase panel (protein, RNA, and DNA methyltransferases. and EP300 (acetyltransferase))) EUB0000270b PRMT5
Chain of Protein arginine N-methyltransferase 5 (O14744 whole entry): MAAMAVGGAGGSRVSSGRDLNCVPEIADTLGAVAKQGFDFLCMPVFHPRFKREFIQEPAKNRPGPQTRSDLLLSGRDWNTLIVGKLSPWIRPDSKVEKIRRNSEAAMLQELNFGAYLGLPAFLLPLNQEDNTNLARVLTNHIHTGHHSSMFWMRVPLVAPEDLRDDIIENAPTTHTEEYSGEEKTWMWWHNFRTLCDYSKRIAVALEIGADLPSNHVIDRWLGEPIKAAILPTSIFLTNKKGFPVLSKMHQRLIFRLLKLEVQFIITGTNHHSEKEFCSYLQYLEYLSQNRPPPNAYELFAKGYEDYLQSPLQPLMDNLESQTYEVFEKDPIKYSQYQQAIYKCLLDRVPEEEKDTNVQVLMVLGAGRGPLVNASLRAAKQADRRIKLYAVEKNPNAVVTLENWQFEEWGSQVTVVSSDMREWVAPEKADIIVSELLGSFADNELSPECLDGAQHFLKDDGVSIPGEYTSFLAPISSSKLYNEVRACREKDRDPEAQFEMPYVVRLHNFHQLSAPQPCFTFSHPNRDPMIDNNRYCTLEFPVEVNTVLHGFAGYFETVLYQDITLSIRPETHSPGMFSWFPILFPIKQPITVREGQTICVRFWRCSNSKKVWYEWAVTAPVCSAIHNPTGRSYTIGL

Chain of Cyclin-dependent kinase 1 (Homo sapiens) (P06493 whole entry, looked up): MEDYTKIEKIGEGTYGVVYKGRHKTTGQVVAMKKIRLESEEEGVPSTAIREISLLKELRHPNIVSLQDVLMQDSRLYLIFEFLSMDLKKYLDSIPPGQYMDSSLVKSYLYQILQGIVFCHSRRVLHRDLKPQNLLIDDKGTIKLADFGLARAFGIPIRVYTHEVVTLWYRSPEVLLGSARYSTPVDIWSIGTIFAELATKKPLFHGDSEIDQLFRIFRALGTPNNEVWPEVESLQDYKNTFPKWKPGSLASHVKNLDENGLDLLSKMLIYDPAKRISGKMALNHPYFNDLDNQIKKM
Chain of Protein kinase C eta type (Homo sapiens) (P24723 whole entry): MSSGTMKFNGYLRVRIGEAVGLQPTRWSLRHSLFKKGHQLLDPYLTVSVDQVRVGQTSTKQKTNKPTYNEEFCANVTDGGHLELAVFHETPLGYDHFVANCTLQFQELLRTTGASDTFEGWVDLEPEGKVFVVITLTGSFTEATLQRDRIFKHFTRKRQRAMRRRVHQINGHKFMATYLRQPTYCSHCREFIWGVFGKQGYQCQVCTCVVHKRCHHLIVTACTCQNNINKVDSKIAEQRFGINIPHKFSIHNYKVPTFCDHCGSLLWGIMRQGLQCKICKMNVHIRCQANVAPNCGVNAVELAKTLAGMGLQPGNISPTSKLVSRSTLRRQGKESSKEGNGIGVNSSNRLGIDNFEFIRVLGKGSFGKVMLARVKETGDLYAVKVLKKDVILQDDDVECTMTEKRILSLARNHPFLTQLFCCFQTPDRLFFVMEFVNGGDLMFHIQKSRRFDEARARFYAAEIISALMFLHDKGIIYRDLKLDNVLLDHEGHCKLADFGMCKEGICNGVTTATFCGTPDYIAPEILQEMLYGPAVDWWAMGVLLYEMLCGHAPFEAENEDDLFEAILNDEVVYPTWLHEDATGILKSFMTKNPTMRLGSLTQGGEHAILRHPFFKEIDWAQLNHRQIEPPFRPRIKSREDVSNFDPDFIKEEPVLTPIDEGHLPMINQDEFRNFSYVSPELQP

SMILES: Nc1cnc(N2CCc3cc(S(=O)(=O)Nc4c(F)cc(Cl)cc4F)cc(N4CCCC4=O)c32)nc1 [TP-020n]
% of control [1]: 100%
% of control [2]: 80%

SMILES: CNC(=O)Nc1ccc(-c2nc(N3CC4CCC(C3)O4)c3cnn(C4CCC5(CC4)OCCO5)c3n2)cc1
% of control [3]: 91%

SMILES: N#Cc1cccc(-c2c[nH]c3ncnc(N4CCOCC4)c23)c1
% of control [4]: 100%

% of inhibition ([5]; at 0.01 µM): 2.4%
% of inhibition ([5]; at 0.04 µM): 3.3%
% of inhibition ([5]; at 0.2 µM): 14.8%
% of inhibition ([5]; at 1 µM): 3.1%
% of inhibition ([5]; at 5 µM): -9%
SMILES: CC[C@@H]1[C@H](F)C(=O)N[C@@H]1COc1nccc2cc(C(N)=O)c(OC)cc12 [ZIMLOVISERTIB]

% activity ([6]; at 1 µM): > 90%
% activity ([6]; at 10 µM): > 80%
SMILES: Cc1cc(CN)cc(C)c1-c1ncn(C)c1-c1cncn1C
